According to patent publication US20030225044A1, “Method to increase serum levels of vitamins in animals including humans” (priority 2002, published 2003):

Tests used:
Assay type in all cases: in vivo, beef steers
[1] = Dose/response of nasal administration, serum 25-Hydroxy-Vitamin D3 (Example III); settings: intranasal
Method: To study the dose/response efficacy of nasal administration of Vitamin D, twelve (12) beef steers of mixed breeding were used to evaluate four treatments (3 replications). These four treatments were:
(§1) Treatments were applied and cattle were bled via jugular venipuncture at 0 and 6 hours post-dosing.

[2] = Buccal versus nasal administration, serum 25-Hydroxy-Vitamin D3 (Example IV); settings: for serum level change for each milligram administered: after 6 hours (FIG. 7)
Method: To study the dose/response efficacy of buccal administration of one or more vitamins, beef steers of mixed breeding were used to evaluate three treatments (3 replications). These three treatments were:
as §1

[3] = Serum 25-Hydroxy-Vitamin D3 after intravenous infusion (Example I); settings: 125 mg intravenous infusion
Method: Applicants infused three (3) beef steers of mixed breeding with 125 milligrams of 25-Hydroxy-Vitamin D3 intravenously. Blood was drawn just prior to the intravenous infusion and at 6 hours and 24 hours post administration.
Point 120, representing 116 nanomoles per liter, comprises the serum level of 25-Hydroxy-Vitamin D3 just prior to the intravenous infusion. At 6 hours post administration, the serum blood level was measured as 2432 nanomoles per liter, i.e. point 130. […] At 24 hours post administration, the serum blood level was measured as 1011 nanomoles per liter, i.e. point 140.

[4] = Serum 25-Hydroxy-Vitamin D3 after intranasal or transdermal administration (Example II); settings: for fold increase in the 25-Hydroxy-Vitamin D3 serum level / percent increase in the 25-Hydroxy-Vitamin D3 serum level: nasal delivery
Method: These five treatments were:
Treatments were applied and cattle were bled via jugular venipuncture at 0, 6, and 24 hours post-dosing.

[5] = Treatment 2: 125 mg 25-OH D3, ethanol, intranasal, 6 Hours
[6] = Treatment 2: 125 mg 25-OH D3, ethanol, intranasal, 24 Hours
[7] = Treatment 2: 125 mg 25-OH D3, ethanol, intranasal, time 0
[8] = Treatment 2: 125 mg in ethanol, 6 hours post administration (FIG. 2, point 212)
[9] = Treatment 2: 125 mg in ethanol, 24 hours post administration (FIG. 2, point 214)
[10] = Treatment 3: 125 mg 25-OH D3, powder, intranasal, 6 Hours
[11] = Treatment 3: 125 mg 25-OH D3, powder, intranasal, 24 Hours
[12] = Treatment 3: 125 mg 25-OH D3, powder, intranasal, time 0
[13] = Treatment 4: 125 mg 25-OH D3, corn oil, intranasal, 6 Hours
[14] = Treatment 4: 125 mg 25-OH D3, corn oil, intranasal, 24 Hours
[15] = Treatment 4: 125 mg 25-OH D3, corn oil, intranasal, time 0
[16] = Treatment 5: 125 mg 25-OH D3, transdermal (inner ear), 6 Hours
[17] = Treatment 5: 125 mg 25-OH D3, transdermal (inner ear), 24 Hours
[18] = Treatment 5: 125 mg 25-OH D3, transdermal (inner ear), time 0

Structure (SMILES): C=C1CC[C@H](O)C/C1=C/C=C1\CCC[C@]2(C)[C@@H]([C@H](C)CCCC(C)(C)O)CC[C@@H]12 [25-Hydroxy-Vitamin D3]
- Average Serum Levels-25-Hydroxy-Vitamin D3 ([1]; Treatment 2: 30 mg 25-OH D3 in 1 ml ethanol, 6 Hours): 149.67 nmoI/L
- Average Serum Levels-25-Hydroxy-Vitamin D3 ([1]; Treatment 2: 30 mg 25-OH D3 in 1 ml ethanol, time 0): 121.33 nmoI/L
- change in serum level per milligram administered, compared among dosages ([1]; Treatment 2: 30 mg in 1 ml ethanol, 6 hours, versus 60, 90, 120 mg (FIG. 5)): maximum change in serum level per milligram administered
- Average Serum Levels-25-Hydroxy-Vitamin D3 ([1]; Treatment 3: 60 mg 25-OH D3 in 1 ml ethanol, 6 Hours): 184.33 nmoI/L
- Average Serum Levels-25-Hydroxy-Vitamin D3 ([1]; Treatment 3: 60 mg 25-OH D3 in 1 ml ethanol, time 0): 144.67 nmoI/L
- Average Serum Levels-25-Hydroxy-Vitamin D3 ([1]; Treatment 4: 90 mg 25-OH D3 in 1 ml ethanol, 6 Hours): 180.67 nmoI/L
- Average Serum Levels-25-Hydroxy-Vitamin D3 ([1]; Treatment 4: 90 mg 25-OH D3 in 1 ml ethanol, time 0): 131.33 nmoI/L
- Average Serum Levels-25-Hydroxy-Vitamin D3 ([1]; Treatment 5: 120 mg 25-OH D3 in 1 ml ethanol, 6 Hours): 191.67 nmoI/L
- Average Serum Levels-25-Hydroxy-Vitamin D3 ([1]; Treatment 5: 120 mg 25-OH D3 in 1 ml ethanol, time 0): 122.33 nmoI/L
- serum level change for each milligram administered ([2]; Buccal administration (Treatment 3, 120 mg in 1 ml ethanol)): about 0.63 nmol/L for each milligram administered
- serum level change for each milligram administered ([2]; Nasal administration (Treatment 2, 120 mg in 1 ml ethanol)): about 0.57 nmol/L for each milligram administered
- Average Serum Levels-25-Hydroxy-Vitamin D3 ([2]; Treatment 2: 120 mg 25-OH D3 in 1 ml ethanol, intranasal, 6 Hours): 191.67 nmol/L
- Average Serum Levels-25-Hydroxy-Vitamin D3 ([2]; Treatment 2: 120 mg 25-OH D3 in 1 ml ethanol, intranasal, time 0): 122.33 nmol/L
- effectiveness of buccal administration compared with nasal administration ([2]; Treatment 3, buccal, in ethanol, versus Treatment 2, nasal, 0 to 6 hours (FIG. 6, curves 610 and 620)): comparatively as effective as nasal administration
- Average Serum Levels-25-Hydroxy-Vitamin D3 ([2]; Treatment 3: 120 mg 25-OH D3 in 1 ml ethanol, buccal, 6 Hours): 158.00 nmol/L
- Average Serum Levels-25-Hydroxy-Vitamin D3 ([2]; Treatment 3: 120 mg 25-OH D3 in 1 ml ethanol, buccal, time 0): 82.00 nmol/L
- course of serum level of 25-Hydroxy-Vitamin D3 ([3]; 0 to 6 hours (FIG. 1, curve portion 112)): increases from 0 hours to 6 hours post administration
- course of serum level of 25-Hydroxy-Vitamin D3 ([3]; 6 to 24 hours (FIG. 1, curve portion 114)): decreases from 6 hours to 24 hours post administration
- serum level of 25-Hydroxy-Vitamin D3 ([3]; 6 hours post administration): 2432 nanomoles per liter
- serum level of 25-Hydroxy-Vitamin D3 ([3]; 24 hours post administration): 1011 nanomoles per liter
- serum level of 25-Hydroxy-Vitamin D3 ([3]; just prior to infusion): 116 nanomoles per liter
- Average Serum Levels-25-Hydroxy-Vitamin D3 [4, 5]: 226 nmol/L
- Multiple change from time 0 of serum 25-Hydroxy-Vitamin D3 [4, 5]: 3.0
- Average Serum Levels-25-Hydroxy-Vitamin D3 [4, 6]: 354 nmol/L
- Multiple change from time 0 of serum 25-Hydroxy-Vitamin D3 [4, 6]: 4.7
- Average Serum Levels-25-Hydroxy-Vitamin D3 [4, 7]: 75 nmol/L
- Multiple change from time 0 of serum 25-Hydroxy-Vitamin D3 [4, 7]: 0
- course of serum level of 25-Hydroxy-Vitamin D3 ([4]; Treatment 2: 125 mg in ethanol, nasal delivery (FIG. 2, curve 210)): increases throughout the time period from 0 hours to 24 hours post administration
- fold increase in the 25-Hydroxy-Vitamin D3 serum level [4, 8]: more than a three fold increases
- percent increase in the 25-Hydroxy-Vitamin D3 serum level [4, 8]: ~200%
- fold increase in the 25-Hydroxy-Vitamin D3 serum level [4, 9]: greater than 4.7 fold
- percent increase in the 25-Hydroxy-Vitamin D3 serum level [4, 9]: ~375%
- Average Serum Levels-25-Hydroxy-Vitamin D3 [4, 10]: 104 nmol/L
- Multiple change from time 0 of serum 25-Hydroxy-Vitamin D3 [4, 10]: 1.2
- Average Serum Levels-25-Hydroxy-Vitamin D3 [4, 11]: 156 nmol/L
- Multiple change from time 0 of serum 25-Hydroxy-Vitamin D3 [4, 11]: 1.9
- Average Serum Levels-25-Hydroxy-Vitamin D3 [4, 12]: 83 nmol/L
- Multiple change from time 0 of serum 25-Hydroxy-Vitamin D3 [4, 12]: 0
- course of serum level of 25-Hydroxy-Vitamin D3 ([4]; Treatment 3: 125 mg powder, nasal delivery (FIG. 2, curve 220)): increases throughout the time period from 0 hours to 24 hours post administration
- Average Serum Levels-25-Hydroxy-Vitamin D3 [4, 13]: 95 nmol/L
- Multiple change from time 0 of serum 25-Hydroxy-Vitamin D3 [4, 13]: 1.0
- Average Serum Levels-25-Hydroxy-Vitamin D3 [4, 14]: 179 nmol/L
- Multiple change from time 0 of serum 25-Hydroxy-Vitamin D3 [4, 14]: 1.9
- Average Serum Levels-25-Hydroxy-Vitamin D3 [4, 15]: 94 nmol/L
- Multiple change from time 0 of serum 25-Hydroxy-Vitamin D3 [4, 15]: 0
- course of serum level of 25-Hydroxy-Vitamin D3 ([4]; Treatment 4: 125 mg in corn oil, nasal delivery (FIG. 2, curve 230)): increases throughout the time period from 6 hours to 24 hours post administration
- Average Serum Levels-25-Hydroxy-Vitamin D3 [4, 16]: 81 nmol/L
- Multiple change from time 0 of serum 25-Hydroxy-Vitamin D3 [4, 16]: 1.1
- Average Serum Levels-25-Hydroxy-Vitamin D3 [4, 17]: 96 nmol/L
- Multiple change from time 0 of serum 25-Hydroxy-Vitamin D3 [4, 17]: 1.3
- Average Serum Levels-25-Hydroxy-Vitamin D3 [4, 18]: 74 nmol/L
- Multiple change from time 0 of serum 25-Hydroxy-Vitamin D3 [4, 18]: 0
